In patent publication US7417156B2, “Orally active, antimalarial, anticancer, artemisinin-derived trioxane dimers” (Johns Hopkins University, priority 2002, dated 2008):

Assays:
[1] = test system: MALME-3M; experiment: NCI 60 cell line panel screen (SRB); assay type: cell-based, human
[2] = test system: UO-31; experiment: NCI 60 cell line panel screen (SRB); assay type: cell-based, human
[3] = test system: HOP-92; experiment: NCI 60 cell line panel screen (SRB); assay type: cell-based, human
[4] = test system: U251; experiment: NCI 60 cell line panel screen (SRB); assay type: cell-based, human
[5] = test system: 786-0; experiment: NCI 60 cell line panel screen (SRB); assay type: cell-based, human
[6] = test system: COLO 205; experiment: NCI 60 cell line panel screen (SRB); assay type: cell-based, human
[7] = test system: SK-MEL-28; experiment: NCI 60 cell line panel screen (SRB); assay type: cell-based, human
[8] = test system: 60 cell line panel; assay type: cell-based
[9] = test system: MDA-MB-435; experiment: NCI 60 cell line panel screen (SRB); assay type: cell-based, human
[10] = test system: HCT-15; experiment: NCI 60 cell line panel screen (SRB); assay type: cell-based, human
[11] = test system: ACHN; experiment: NCI 60 cell line panel screen (SRB); assay type: cell-based, human
[12] = test system: T-47D; experiment: NCI 60 cell line panel screen (SRB); assay type: cell-based, human
[13] = test system: HS 578T; experiment: NCI 60 cell line panel screen (SRB); assay type: cell-based, human
[14] = test system: HCT-116; experiment: NCI 60 cell line panel screen (SRB); assay type: cell-based, human
[15] = test system: OVCAR-5; experiment: NCI 60 cell line panel screen (SRB); assay type: cell-based, human
[16] = test system: SNB-19; experiment: NCI 60 cell line panel screen (SRB); assay type: cell-based, human
[17] = test system: NCI-H460; experiment: NCI 60 cell line panel screen (SRB); assay type: cell-based, human
[18] = test system: TK-10; experiment: NCI 60 cell line panel screen (SRB); assay type: cell-based, human
[19] = test system: OVCAR-3; experiment: NCI 60 cell line panel screen (SRB); assay type: cell-based, human
[20] = test system: RPMI-8226; experiment: NCI 60 cell line panel screen (SRB); assay type: cell-based, human
[21] = test system: IGROVI; experiment: NCI 60 cell line panel screen (SRB); assay type: cell-based, human
[22] = test system: NCI-H322M; assay type: cell-based
[23] = test system: SK-MEL-2; experiment: NCI 60 cell line panel screen (SRB); assay type: cell-based, human
[24] = test system: PC-3; experiment: NCI 60 cell line panel screen (SRB); assay type: cell-based, human
[25] = test system: M14; experiment: NCI 60 cell line panel screen (SRB); assay type: cell-based, human
[26] = test system: KM12; experiment: NCI 60 cell line panel screen (SRB); assay type: cell-based, human
[27] = test system: NCI-H23; experiment: NCI 60 cell line panel screen (SRB); assay type: cell-based, human
[28] = mean value over the 60 cell line panel

`CC1CCC2C(C)C(CC(COC(=O)c3cc[n+]([O-])cc3)CC3OC4OC5(C)CCC6C(C)CCC(C3C)C46OO5)OC3OC4(C)CCC1C32OO4` (stereo not drawn) [Compound 13, bis-trioxane primary alcohol isonicotinate N-oxide] showed a Log10LC50 ([1]; MALME-3M (Melanoma), LC50: PG=−50) of −4.66 log10M, a Log10TGI50 ([1]; MALME-3M (Melanoma), TGI: PG=0) of less than −8.30 log10M and a Log10GI50 ([1]; Melanoma, MALME-3M) of less than −8.30. For the same molecule, the Log10GI50 ([2]; Renal Cancer, UO-31) was less than −8.30, the Log10LC50 ([2]; UO-31 (Renal Cancer), LC50: PG=−50) was greater than −4.30 log10M and the Log10TGI50 ([2]; UO-31 (Renal Cancer), TGI: PG=0) was −5.10 log10M. The Log10LC50 ([3]; HOP-92 (Non-Small Cell Lung Cancer), LC50: PG=−50) was −4.74 log10M, the Log10TGI50 ([3]; HOP-92 (Non-Small Cell Lung Cancer), TGI: PG=0) was −5.27 log10M and the Log10GI50 ([3]; Non-Small Cell Lung Cancer, HOP-92) was −8.04. The Log10GI50 ([4]; CNS Cancer, U251) was less than −8.30, the Log10LC50 ([4]; U251 (CNS Cancer), LC50: PG=−50) was −4.69 log10M and the Log10TGI50 ([4]; U251 (CNS Cancer), TGI: PG=0) was −5.08 log10M. The Log10LC50 ([5]; 786-0 (Renal Cancer), LC50: PG=−50) was −4.43 log10M, the Log10TGI50 ([5]; 786-0 (Renal Cancer), TGI: PG=0) was −4.94 log10M and the Log10GI50 ([5]; Renal Cancer, 786-0) was −7.81. For the same molecule, the Log10LC50 ([6]; COLO 205 (Colon Cancer), LC50: PG=−50) was greater than −4.30 log10M, the Log10TGI50 ([6]; COLO 205 (Colon Cancer), TGI: PG=0) was greater than −4.30 log10M and the Log10GI50 ([6]; Colon Cancer, COLO 205) was less than −8.30. For the same molecule, the Log10GI50 ([7]; Melanoma, SK-MEL-28) was −5.13, the Log10LC50 ([7]; SK-MEL-28 (Melanoma), LC50: PG=−50) was −4.34 log10M and the Log10TGI50 ([7]; SK-MEL-28 (Melanoma), TGI: PG=0) was −4.73 log10M. For the same molecule, the “Log10GI50 Delta” value [8] was 0.92, the “Log10GI50 Range” value [8] was 3.22 and the “Log10LC50 Delta” value ([8]; 60 cell line panel) was 1.27. The “Log10LC50 Range” value ([8]; 60 cell line panel) was 1.49, the “Log10TGI50 Delta” value ([8]; 60 cell line panel) was 3.15 and the “Log10TGI50 Range” value ([8]; 60 cell line panel) was 4.00. The “Log10GI50 MG MID” value ([8]; mean over panel) was −7.38, the “Log10LC50 MG MID” value [8, 28] was −4.51 log10M and the “Log10TGI50 MG MID” value [8, 28] was −5.15 log10M. For the same molecule, the Log10GI50 ([9]; Breast Cancer, MDA-MB-435) was −7.62, the Log10LC50 ([9]; MDA-MB-435 (Breast Cancer), LC50: PG=−50) was −4.46 log10M and the Log10TGI50 ([9]; MDA-MB-435 (Breast Cancer), TGI: PG=0) was −4.94 log10M. It also gave a Log10GI50 ([10]; Colon Cancer, HCT-15) of less than −8.30, a Log10LC50 ([10]; HCT-15 (Colon Cancer), LC50: PG=−50) of −4.81 log10M and a Log10TGI50 ([10]; HCT-15 (Colon Cancer), TGI: PG=0) of −8.19 log10M. The Log10LC50 ([11]; ACHN (Renal Cancer), LC50: PG=−50) was −4.79 log10M, the Log10TGI50 ([11]; ACHN (Renal Cancer), TGI: PG=0) was −6.57 log10M and the Log10GI50 ([11]; Renal Cancer, ACHN) was less than −8.30. For the same molecule, the Log10GI50 ([12]; Breast Cancer, T-47D) was less than −8.30, the Log10LC50 ([12]; T-47D (Breast Cancer), LC50: PG=−50) was greater than −4.30 log10M and the Log10TGI50 ([12]; T-47D (Breast Cancer), TGI: PG=0) was −5.36 log10M. It also gave a Log10GI50 ([13]; Breast Cancer, HS 578T) of less than −8.30, a Log10LC50 ([13]; HS 578T (Breast Cancer), LC50: PG=−50) of −4.35 log10M and a Log10TGI50 ([13]; HS 578T (Breast Cancer), TGI: PG=0) of −5.00 log10M. The Log10GI50 ([14]; Colon Cancer, HCT-116) was less than −8.30, the Log10LC50 ([14]; HCT-116 (Colon Cancer), LC50: PG=−50) was greater than −4.30 log10M and the Log10TGI50 ([14]; HCT-116 (Colon Cancer), TGI: PG=0) was −5.06 log10M. It also gave a Log10LC50 ([15]; OVCAR-5 (Ovarian Cancer), LC50: PG=−50) of −4.66 log10M, a Log10TGI50 ([15]; OVCAR-5 (Ovarian Cancer), TGI: PG=0) of −5.14 log10M and a Log10GI50 ([15]; Ovarian Cancer, OVCAR-5) of less than −8.30. It also gave a Log10GI50 ([16]; CNS Cancer, SNB-19) of −5.08, a Log10LC50 ([16]; SNB-19 (CNS Cancer), LC50: PG=−50) greater than −4.30 log10M and a Log10TGI50 ([16]; SNB-19 (CNS Cancer), TGI: PG=0) greater than −4.30 log10M. For the same molecule, the Log10LC50 ([17]; NCI-H460 (Non-Small Cell Lung Cancer), LC50: PG=−50) was −4.36 log10M, the Log10TGI50 ([17]; NCI-H460 (Non-Small Cell Lung Cancer), TGI: PG=0) was −4.92 log10M and the Log10GI50 ([17]; Non-Small Cell Lung Cancer, NCI-H460) was less than −8.30. For the same molecule, the Log10GI50 ([18]; Renal Cancer, TK-10) was less than −8.30, the Log10LC50 ([18]; TK-10 (Renal Cancer), LC50: PG=−50) was −4.53 log10M and the Log10TGI50 ([18]; TK-10 (Renal Cancer), TGI: PG=0) was −5.34 log10M. For the same molecule, the Log10LC50 ([19]; OVCAR-3 (Ovarian Cancer), LC50: PG=−50) was −4.51 log10M, the Log10TGI50 ([19]; OVCAR-3 (Ovarian Cancer), TGI: PG=0) was −4.98 log10M and the Log10GI50 ([19]; Ovarian Cancer, OVCAR-3) was −7.75. The Log10GI50 ([20]; Leukemia, RPMI-8226) was less than −8.30, the Log10LC50 ([20]; RPMI-8226 (Leukemia), LC50: PG=−50) was greater than −4.30 log10M and the Log10TGI50 ([20]; RPMI-8226 (Leukemia), TGI: PG=0) was greater than −4.30 log10M. The Log10LC50 ([21]; IGROVI (Ovarian Cancer), LC50: PG=−50) was greater than −4.30 log10M, the Log10TGI50 ([21]; IGROVI (Ovarian Cancer), TGI: PG=0) was greater than −4.30 log10M and the Log10GI50 ([21]; Ovarian Cancer, IGROVI) was −5.36. The Log10LC50 ([22]; NCI-H322M (Non-Small Cell Lung Cancer), LC50: PG=−50) was −4.59 log10M, the Log10TGI50 ([22]; NCI-H322M (Non-Small Cell Lung Cancer), TGI: PG=0) was −5.06 log10M and the Log10GI50 ([22]; Non-Small Cell Lung Cancer, NCI-H322M) was −6.26. For the same molecule, the Log10GI50 ([23]; Melanoma, SK-MEL-2) was −5.12, the Log10LC50 ([23]; SK-MEL2 (Melanoma), LC50: PG=−50) was greater than −4.30 log10M and the Log10TGI50 ([23]; SK-MEL-2 (Melanoma), TGI: PG=0) was greater than −4.30 log10M. The Log10LC50 ([24]; PC-3 (Prostate Cancer), LC50: PG=−50) was −4.63 log10M, the Log10TGI50 ([24]; PC-3 (Prostate Cancer), TGI: PG=0) was −5.11 log10M and the Log10GI50 ([24]; Prostate Cancer, PC-3) was less than −8.30. For the same molecule, the Log10LC50 ([25]; M14 (Melanoma), LC50: PG=−50) was greater than −4.30 log10M, the Log10TGI50 ([25]; M-14 (Melanoma), TGI: PG=0) was −4.75 log10M and the Log10GI50 ([25]; Melanoma, M14) was −5.81. The Log10GI50 ([26]; Colon Cancer, KM12) was less than −8.30, the Log10LC50 ([26]; KM12 (Colon Cancer), LC50: PG=−50) was −4.37 log10M and the Log10TGI50 ([26]; KM12 (Colon Cancer), TGI: PG=0) was −5.04 log10M. It also gave a Log10LC50 ([27]; NCI-H23 (Non-Small Cell Lung Cancer), LC50: PG=−50) of −4.62 log10M, a Log10TGI50 ([27]; NCI-H23 (Non-Small Cell Lung Cancer), TGI: PG=0) of −5.17 log10M and a Log10GI50 ([27]; Non-Small Cell Lung Cancer, NCI-H23) of less than −8.30.
